Results as given in patent publication US20240287007A1, “N-(1,3,4-OXADIAZOL-2-YL)PHENYLCARBOXAMIDES AS HERBICIDES” (BAYER AKTIENGESELLSCHAFT, priority 2021, published 2024).

Tests used:
Assay type in all cases: in vivo
AVEFA (Avena fatua) [1] = test: Pre-emergence herbicidal effect against AVEFA; conditions: 80 g/ha, scored visually after 3 weeks
Description: (§1) Seeds of monocotyledonous and dicotyledonous weed plants and crop plants are laid out in sandy loam soil in wood-fiber pots and covered with soil. The compounds of the invention, formulated in the form of wettable powders (WP) or as emulsion concentrates (EC), are then applied to the surface of the covering soil as aqueous suspension or emulsion at a water application rate equating to 600 to 800 l/ha with addition of 0.2% wetting agent. After the treatment, the pots are placed in a greenhouse and kept under good growth conditions for the trial plants. The damage to the test plants is scored visually after a test period of 3 weeks by comparison with untreated controls (herbicidal activity in percent (%): 100% activity=the plants have died, 0% activity=like control plants).

[2] = test system: ABUTH (Abutylon threophrasti); test: Pre-emergence herbicidal effect against ABUTH; conditions: scored visually after 3 weeks
Description: as §1

[3] = test system: DIGSA (Digitaria sanguinalis); test: Post-emergence herbicidal action against DIGSA; conditions: visual assessment after about 3 weeks
Description: (§2) Seeds of monocotyledonous and dicotyledonous weed and crop plants are laid out in sandy loam soil in wood-fiber pots, covered with soil and cultivated in a greenhouse under good growth conditions. 2 to 3 weeks after sowing, the trial plants are treated at the one-leaf stage. The compounds of the invention, formulated in the form of wettable powders (WP) or as emulsion concentrates (EC), are then sprayed onto the green parts of the plants as aqueous suspension or emulsion at a water application rate equating to 600 to 800 l/ha with addition of 0.2% wetting agent. After the test plants have been left to stand in the greenhouse under optimal growth conditions for about 3 weeks, the action of the preparations is assessed visually in comparison to untreated controls (herbicidal action in percent (%): 100% activity=the plants have died, 0% activity=like control plants).

AVEFA (Avena fatua) [4] = test: Post-emergence herbicidal action against AVEFA; conditions: 80 g/ha, visual assessment after about 3 weeks
Description: as §2

[5] = test system: ABUTH (Abutylon threophrasti); test: Post-emergence herbicidal action against ABUTH; conditions: visual assessment after about 3 weeks
Description: as §2

[6] = test system: AMARE (Amaranthus retroflexus); test: Post-emergence herbicidal action against AMARE; conditions: visual assessment after about 3 weeks
Description: as §2

[7] = test system: MATIN (Matricaria inodora); test: Pre-emergence herbicidal effect against MATIN; conditions: scored visually after 3 weeks
Description: as §1

VIOTR (Viola tricolor) [8] = test: Post-emergence herbicidal action against VIOTR; conditions: visual assessment after about 3 weeks
Description: as §2

VIOTR (Viola tricolor) [9] = test: Pre-emergence herbicidal effect against VIOTR; conditions: scored visually after 3 weeks
Description: as §1

[10] = test system: MATIN (Matricaria inodora); test: Post-emergence herbicidal action against MATIN; conditions: visual assessment after about 3 weeks
Description: as §2

VERPE (Veronica persica) [11] = test: Pre-emergence herbicidal effect against VERPE; conditions: scored visually after 3 weeks
Description: as §1

SETVI (Setaria viridis) [12] = test: Post-emergence herbicidal action against SETVI; conditions: visual assessment after about 3 weeks
Description: as §2

[13] = test system: ECHCG (Echinochloa crus-galli); test: Post-emergence herbicidal action against ECHCG; conditions: visual assessment after about 3 weeks
Description: as §2

SETVI (Setaria viridis) [14] = test: Pre-emergence herbicidal effect against SETVI; conditions: scored visually after 3 weeks
Description: as §1

[15] = test system: AMARE (Amaranthus retroflexus); test: Pre-emergence herbicidal effect against AMARE; conditions: scored visually after 3 weeks
Description: as §1

VERPE (Veronica persica) [16] = test: Post-emergence herbicidal action against VERPE; conditions: visual assessment after about 3 weeks
Description: as §2

[17] = test system: PHBPU (Pharbitis purpurea); test: Post-emergence herbicidal action against PHBPU; conditions: visual assessment after about 3 weeks
Description: as §2

[18] = test system: ECHCG (Echinochloa crus-galli); test: Pre-emergence herbicidal effect against ECHCG; conditions: scored visually after 3 weeks
Description: as §1

[19] = test system: PHBPU (Pharbitis purpurea); test: Pre-emergence herbicidal effect against PHBPU; conditions: 80 g/ha, scored visually after 3 weeks
Description: as §1

[20] = test system: DIGSA (Digitaria sanguinalis); test: Pre-emergence herbicidal effect against DIGSA; conditions: scored visually after 3 weeks
Description: as §1

LOLRI (Lolium rigidum) = test: Pre-emergence herbicidal effect against LOLRI; conditions: 80 g/ha, scored visually after 3 weeks
Description: as §1

KCHSC (Kochia scoparia) [21] = test: Pre-emergence herbicidal effect against KCHSC; conditions: scored visually after 3 weeks
Description: as §1

KCHSC (Kochia scoparia) [22] = test: Post-emergence herbicidal action against KCHSC; conditions: visual assessment after about 3 weeks
Description: as §2

## CS(=O)(=O)c1c(OC(F)F)ccc(C(=O)Nc2nnco2)c1Cl [Example 1-25, 2-chloro-4-(difluoromethoxy)-3-(methylsulfonyl)-N-(1,3,4-oxadiazol-2-yl)benzamide]
AVEFA (Avena fatua) [1]
  Pre-emergence effect at 80 g/ha against A VEFA in %: 90%
[2]; 20 g/ha
  Pre-emergence effect at 20 g/ha against ABUTH in %: 100%
[2]; 80 g/ha
  Pre-emergence effect at 80 g/ha against ABUTH in %: 100%
[3]; 20 g/ha
  Post-emergence effect at 20 g/ha against DIGSA in %: 100%
[3]; 80 g/ha
  Post-emergence effect at 80 g/ha against DIGSA in %: 100%
AVEFA (Avena fatua) [4]
  Post-emergence effect at 80 g/ha against AVEFA in %: 100%
[5]; 20 g/ha
  Post-emergence effect at 20 g/ha against ABUTH in %: 100%
[5]; 80 g/ha
  Post-emergence effect at 80 g/ha against ABUTH in %: 100%
[6]; 20 g/ha
  Post-emergence effect at 20 g/ha against AMARE in %: 100%
[6]; 80 g/ha
  Post-emergence effect at 80 g/ha against AMARE in %: 100%
[7]; 20 g/ha
  Pre-emergence effect at 20 g/ha against MATIN in %: 100%
[7]; 80 g/ha
  Pre-emergence effect at 80 g/ha against MATIN in %: 100%
VIOTR (Viola tricolor) [8]; 20 g/ha
  Post-emergence effect at 20 g/ha against VIOTR in %: 100%
VIOTR (Viola tricolor) [8]; 80 g/ha
  Post-emergence effect at 80 g/ha against VIOTR in %: 100%
VIOTR (Viola tricolor) [9]; 20 g/ha
  Pre-emergence effect at 20 g/ha against VIOTR in %: 100%
VIOTR (Viola tricolor) [9]; 80 g/ha
  Pre-emergence effect at 80 g/ha against VIOTR in %: 100%
[10]; 20 g/ha
  Post-emergence effect at 20 g/ha against MATIN in %: 100%
[10]; 80 g/ha
  Post-emergence effect at 80 g/ha against MATIN in %: 100%
VERPE (Veronica persica) [11]; 20 g/ha
  Pre-emergence effect at 20 g/ha against VERPE in %: 90%
VERPE (Veronica persica) [11]; 80 g/ha
  Pre-emergence effect at 80 g/ha against VERPE in %: 100%
SETVI (Setaria viridis) [12]; 20 g/ha
  Post-emergence effect at 20 g/ha against SETVI in %: 100%
SETVI (Setaria viridis) [12]; 80 g/ha
  Post-emergence effect at 80 g/ha against SETVI in %: 100%
[13]; 20 g/ha
  Post-emergence effect at 20 g/ha against ECHCG in %: 80%
[13]; 80 g/ha
  Post-emergence effect at 80 g/ha against ECHCG in %: 100%
SETVI (Setaria viridis) [14]; 20 g/ha
  Pre-emergence effect at 20 g/ha against SETVI in %: 100%
SETVI (Setaria viridis) [14]; 80 g/ha
  Pre-emergence effect at 80 g/ha against SETVI in %: 100%
[15]; 20 g/ha
  Pre-emergence effect at 20 g/ha against AMARE in %: 100%
[15]; 80 g/ha
  Pre-emergence effect at 80 g/ha against AMARE in %: 100%
VERPE (Veronica persica) [16]; 20 g/ha
  Post-emergence effect at 20 g/ha against VERPE in %: 90%
VERPE (Veronica persica) [16]; 80 g/ha
  Post-emergence effect at 80 g/ha against VERPE in %: 100%
[17]; 20 g/ha
  Post-emergence effect at 20 g/ha against PHBPU in %: 100%
[17]; 80 g/ha
  Post-emergence effect at 80 g/ha against PHBPU in %: 100%
[18]; 20 g/ha
  Pre-emergence effect at 20 g/ha against ECHCG in %: 100%
[18]; 80 g/ha
  Pre-emergence effect at 80 g/ha against ECHCG in %: 100%
[19]
  Pre-emergence effect at 80 g/ha against PHBPU in %: 90%
[20]; 20 g/ha
  Pre-emergence effect at 20 g/ha against DIGSA in %: 100%
[20]; 80 g/ha
  Pre-emergence effect at 80 g/ha against DIGSA in %: 100%
LOLRI (Lolium rigidum)
  Pre-emergence effect at 80 g/ha against LOLRI in %: 90%
KCHSC (Kochia scoparia) [21]; 20 g/ha
  Pre-emergence effect at 20 g/ha against KCHSC in %: 100%
KCHSC (Kochia scoparia) [21]; 80 g/ha
  Pre-emergence effect at 80 g/ha against KCHSC in %: 100%
KCHSC (Kochia scoparia) [22]; 20 g/ha
  Post-emergence effect at 20 g/ha against KCHSC in %: 100%
KCHSC (Kochia scoparia) [22]; 80 g/ha
  Post-emergence effect at 80 g/ha against KCHSC in %: 100%
